From publication PMC5519977, “Redox-dependent substrate-cofactor interactions in the Michaelis-complex of a flavin-dependent oxidoreductase” (Nature Communications, 2017) come the findings set out here.

This experiment concerns the target T1, xenobiotic reductase A (XenA) (Pseudomonas putida, UniProt Q3ZDM6).
T1 construct: recombinant in E. coli Rosetta (DE3), pET28a; N-terminal His-tag removed with TEV protease; reconstituted with FMN
Kind of experiment: stopped-flow reoxidation of reduced enzyme. The conditions noted are these: reduced enzyme (FMNH-), anoxic, 50 mM Tris/HCl pH 8.0, 25 °C. The class given is biochemical.

T1 sequence (Q3ZDM6 entry or part of it): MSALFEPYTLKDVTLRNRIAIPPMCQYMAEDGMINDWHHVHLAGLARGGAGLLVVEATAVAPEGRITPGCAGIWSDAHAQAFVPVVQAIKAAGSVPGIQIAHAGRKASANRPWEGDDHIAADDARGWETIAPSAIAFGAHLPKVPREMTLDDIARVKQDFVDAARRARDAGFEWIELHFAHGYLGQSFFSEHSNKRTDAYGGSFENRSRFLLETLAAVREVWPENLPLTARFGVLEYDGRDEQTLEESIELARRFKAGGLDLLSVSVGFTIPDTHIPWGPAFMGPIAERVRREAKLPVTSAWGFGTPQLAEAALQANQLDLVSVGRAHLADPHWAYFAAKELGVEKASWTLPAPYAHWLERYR

As to `O=c1ccc2ccccc2o1` [coumarin], the dissociation constant entry is given as “dissociation constants of the reduced Michaelis complexes for the respective substrates”.
For `O=c1ccc2ccc(O)cc2o1` [7-hydroxycoumarin], the dissociation constant entry is “dissociation constants of the reduced Michaelis complexes for the respective substrates”.
Under `O=c1ccc2cccc(O)c2o1` [8-hydroxycoumarin] stands “dissociation constants of the reduced Michaelis complexes for the respective substrates”.
